The record followed here is ChEMBL document CHEMBL2016454, “Design and synthesis of dihydrobenzofuran amides as orally bioavailable, centrally active γ-secretase modulators” (Bioorg Med Chem Lett, 2012).

Molecules are shown by their SMILES. The source made the active and inactive calls. No cut-off for these calls is given here.

A short description of data set [1]: Inhibition of gamma secretase expressed in CHO cells expressing APP assessed as amyloid beta42 production. It counts as cell-based.
A further data set has as its system MDR1 (P-gp), human. Kind of data set: Efflux ratio of permeability in MDCK cells over expressing human MDR1. It counts as ADME, cell-based, Canis lupus familiaris. The conditions noted are these: dog.
Data set [2] is described as follows: Intrinsic clearance in human liver microsomes. It counts as ADME, Microsome. The conditions noted are these: read-out: CLH.
The target in another data set is Cytochrome P450 2D6 (Homo sapiens, UniProt P10635). Kind of data set: Inhibition of CYP2D6. It counts as ADME.
A short description of data set [3]: Half life in rat. Format: ADME, organism-based. To be noted: in vivo.
A short description of data set [4]: Fraction unbound in Hartley guinea pig plasma at 100 mg/kg, po after 4 hrs post dose. Format: ADME, organism-based, Cavia porcellus. The arrangement: dose 100 mg/kg, route oral.
In data set [5] the test system is Cavia porcellus. Nature of the data set: Antialzheimer activity in Hartley guinea pig assessed as reduction of amyloid beta42 level in brain at 100 mg/kg, po after 4 hrs. It counts as functional. The arrangement: scale not given: the % may be the effect or the level left.
Data set [6] is described as follows: Oral bioavailability in rat. It counts as ADME, organism-based. The conditions noted are these: in vivo.
Data set [7] is described as follows: Drug uptake in Hartley guinea pig brain at 100 mg/kg, po after 4 hrs post dose. Format: ADME, organism-based, Cavia porcellus. The arrangement: dose 100 mg/kg, route oral. The conditions noted are these: read-out: Drug uptake.
A short description of data set [8]: Clearance in rat. The conditions noted are these: in vivo. Format: ADME, organism-based.
The test system of data set [9] is Cavia porcellus. Nature of the data set: Antialzheimer activity in Hartley guinea pig assessed as reduction of amyloid beta40 level in brain at 100 mg/kg, po after 4 hrs. More on the design: scale not given: the % may be the effect or the level left. Format: functional.
A further data set deals with Gamma-secretase. Kind of data set: Inhibition of gamma-secretase expressed in human HEK293 NdeltaE cells assessed as cleavage of Notch. Format: cell-based.
The nature of data set [10]: Volume of distribution at steady state in rat. It counts as ADME, organism-based. The conditions noted are these: in vivo, read-out: Vdss.
Data set [11] is described as follows: Fraction unbound in Hartley guinea pig brain at 100 mg/kg, po after 4 hrs post dose […]. Format: ADME, organism-based, Cavia porcellus. The arrangement: dose 100 mg/kg, route oral.
The target of a further data set is Cytochrome P450 3A4 (Homo sapiens, UniProt P08684). Nature of the data set: Inhibition of CYP3A4. Format: ADME.
The nature of data set [12]: Total plasma concentration in Hartley guinea pig at 100 mg/kg, po after 4 hrs post dose. Format: ADME, organism-based, Cavia porcellus. The arrangement: dose 100 mg/kg, route oral.
Data set [13] in a line: Ratio of fraction unbound in Hartley guinea pig brain to IC50 of gamma secretase expressed in CHO cells expressing APP assessed as amyloid beta42 production. Format: ADME, cell-based.
In data set [14] the test system is Cavia porcellus. Nature of the data set: Antialzheimer activity in Hartley guinea pig assessed as effect on total amyloid beta level in brain at 100 mg/kg, po after 4 hrs. Format: functional, organism-based. More on the design: dose 100 mg/kg.
The subject of data set [15] is Cavia porcellus. Nature of the data set: Antialzheimer activity in Hartley guinea pig assessed as effect on total amyloid beta level in plasma at 100 mg/kg, po after 4 hrs. It counts as functional, organism-based. More on the design: dose 100 mg/kg.
The subject of data set [16] is Cavia porcellus. Nature of the data set: Antialzheimer activity in Hartley guinea pig assessed as increase of amyloid beta38 level in plasma at 100 mg/kg, po after 4 hrs. Format: functional.
In a further data set the test system is Brain. Kind of data set: Ratio of drug level in p-gp knock-out mouse brain to wild type mouse brain. It counts as ADME, tissue-based. The conditions noted are these: in vivo.

Cytochrome P450 2D6, sequence (P10635 whole entry): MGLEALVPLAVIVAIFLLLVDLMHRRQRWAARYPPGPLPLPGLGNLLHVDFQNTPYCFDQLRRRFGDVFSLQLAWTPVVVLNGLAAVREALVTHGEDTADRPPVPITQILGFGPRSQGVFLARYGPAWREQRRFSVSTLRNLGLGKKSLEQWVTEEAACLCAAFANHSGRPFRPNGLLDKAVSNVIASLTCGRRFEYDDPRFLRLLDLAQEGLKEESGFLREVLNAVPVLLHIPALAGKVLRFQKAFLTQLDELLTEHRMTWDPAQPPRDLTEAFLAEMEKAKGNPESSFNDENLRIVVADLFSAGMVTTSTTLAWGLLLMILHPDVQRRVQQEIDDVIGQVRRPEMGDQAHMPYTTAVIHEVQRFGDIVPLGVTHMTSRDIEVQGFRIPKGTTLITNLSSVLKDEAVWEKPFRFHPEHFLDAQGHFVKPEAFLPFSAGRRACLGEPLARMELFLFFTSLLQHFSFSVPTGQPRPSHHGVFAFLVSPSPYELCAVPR
Cytochrome P450 3A4, sequence (P08684 whole entry): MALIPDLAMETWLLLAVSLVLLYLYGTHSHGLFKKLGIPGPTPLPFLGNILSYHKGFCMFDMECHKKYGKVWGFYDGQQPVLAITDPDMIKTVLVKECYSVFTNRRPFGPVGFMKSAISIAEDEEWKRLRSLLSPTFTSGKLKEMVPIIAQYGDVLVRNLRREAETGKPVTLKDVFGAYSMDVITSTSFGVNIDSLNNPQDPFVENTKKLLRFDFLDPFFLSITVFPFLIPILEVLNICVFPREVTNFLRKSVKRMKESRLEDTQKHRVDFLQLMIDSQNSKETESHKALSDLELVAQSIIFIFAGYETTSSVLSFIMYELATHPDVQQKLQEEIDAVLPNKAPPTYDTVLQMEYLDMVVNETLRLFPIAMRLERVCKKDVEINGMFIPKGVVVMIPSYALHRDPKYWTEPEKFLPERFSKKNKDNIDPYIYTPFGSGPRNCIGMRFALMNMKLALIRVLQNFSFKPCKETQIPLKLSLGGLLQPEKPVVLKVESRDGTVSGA

Consider `COc1nc(C(=O)N[C@H]2COc3ccc(Cl)cc32)ccc1-n1cnc(C)c1`, for which the IC50 (as a rule, the point on the concentration scale where inhibition reaches its midpoint) in data set [1] turned out to be 0.343 µM. Further, the efflux ratio – broadly, the permeability from basolateral to apical divided by that in the opposite direction, in the common usage – in the data set with MDR1 (P-gp), human came to 1.3. The microsomal CLint in [2] came out at 28 µL/min/mg.

`COc1cc(/C=C2\CCCN([C@@H](C)c3ccc(F)cc3)C2=O)ccc1-n1cnc(C)c1`: the IC50 in data set [1] worked out at 0.143 µM. The efflux ratio with MDR1 (P-gp), human worked out at 2.2. In addition, in [2], the microsomal CLint was found to be 37.1 µL/min/mg.

Regarding `COc1cc(C(=O)N[C@H]2CCc3ccc(Cl)cc32)ccc1-n1cnc(C)c1`, the IC50 in data set [1] came to 0.605 µM. Moreover, the efflux ratio with MDR1 (P-gp), human was found to be 0.5. In addition, the microsomal CLint in data set [2] came to 32.7 µL/min/mg.

For `COc1cc(C(=O)NC2COc3ccc(F)cc32)ccc1-n1cnc(C)c1` (racemic), the IC50 in data set [1] was 1.56 µM. In data set [2], the microsomal CLint is 21.8 µL/min/mg.

For the compound `COc1cc(C(=O)N2CC[C@](O)(COc3ccccc3C(F)(F)F)C2)ccc1-n1cnc(C)c1`, the IC50 in data set [1] came to 0.256 µM. Also, the efflux ratio with MDR1 (P-gp), human worked out at 24. Besides, the microsomal CLint in [2] came to 124 µL/min/mg.

`CCOc1cc(C)c(CN(C(=O)c2ccc(-n3cnc(C)c3)c(OC)c2)C2CC2)cc1C(C)C`: in data set [1], the IC50 was determined as 0.114 µM. Further, the microsomal CLint in data set [2] worked out at 122 µL/min/mg.

In the case of `COc1cc(C(=O)N[C@@H](C)c2ccc(F)cc2)ccc1-n1cnc(C)c1`, the 50% inhibitory concentration (IC50) in data set [1] came to 4.4 µM. The efflux ratio with MDR1 (P-gp), human amounted to 1.1. Besides, the microsomal CLint in data set [2] turned out to be 12.6 µL/min/mg.

As for `COc1cc(C(=O)NC2COc3cc(Cl)ccc32)ccc1-n1cnc(C)c1` (racemic), in data set [1], the 50% inhibitory concentration (IC50) came to 1.96 µM. In addition, in data set [2], the microsomal CLint was determined as 35.6 µL/min/mg.

Take `COc1nc(C(=O)N[C@H]2COc3ccc(Cl)c(F)c32)ccc1-n1cnc(C)c1`: the IC50 against Cytochrome P450 2D6 was greater than 30 µM; in data set [1], 0.188 µM; on Gamma-secretase, greater than 50 µM; on Cytochrome P450 3A4 it was greater than 30 µM. Besides, in data set [3], the half-life (as a rule, how long it takes for the measured level to halve) is 0.64 h. Moreover, the efflux ratio in the data set with MDR1 (P-gp), human is 1.4. For the same compound, the microsomal CLint in [2] was determined as 30 µL/min/mg. In addition, the fraction unbound (usually the share of the substance not bound to proteins or other matrix) at 4 h in [4] is 0.078; in [11] it was 0.0097. The Activity came to 36% in the data set with Cavia porcellus [5] and 16% with Cavia porcellus [9]. For the same compound, in data set [6], the bioavailability (usually the share of a dose that reaches the circulation, judged against a reference dose that is usually intravenous) is 51%. Moreover, the concentration at 4 h in data set [7] was found to be 3710 ng/g; in data set [12] it was 1290 ng/mL. In data set [8], the clearance (in general, the volume of plasma or blood freed of the substance per unit of time) came to 31.4 mL/min/kg. For the same compound, in data set [10], the Vd stood at 1.78 L. Moreover, the Ratio in [13] came out at 0.31.

As to `COc1cc(C(=O)NC2COc3cccc(Cl)c32)ccc1-n1cnc(C)c1` (racemic), the IC50 in data set [1] amounted to 1.66 µM. Besides, in the data set with MDR1 (P-gp), human, the efflux ratio came to 1.7. Besides, the microsomal CLint in [2] is 97.3 µL/min/mg.

As for `COc1nc(C(=O)N2CC[C@H](Oc3ccccc3C(F)(F)F)C2)cnc1-n1cnc(C)c1`, the IC50 in [1] is 0.535 µM.

As for `COc1cc(C(=O)NCc2cccc(C(F)(F)F)c2)ccc1-n1cnc(C)c1`, the IC50 in data set [1] came to 0.659 µM. Besides, in the data set with MDR1 (P-gp), human, the efflux ratio worked out at 1.8. Further, the microsomal CLint in data set [2] came to 29.2 µL/min/mg.

Turning to `COc1cc(C(=O)N[C@H]2COc3c(Cl)cccc32)ccc1-n1cnc(C)c1`, the IC50 in [1] turned out to be 1.69 µM. In addition, the microsomal CLint in data set [2] turned out to be 19.4 µL/min/mg.

For the compound `COc1cc(C(=O)N2CC[C@H](Oc3ccccc3C(F)(F)F)C2)cnc1-n1cnc(C)c1`, the IC50 in data set [1] worked out at 3.44 µM. Moreover, the efflux ratio with MDR1 (P-gp), human amounted to 1.6.

For the compound `COc1cc(C(=O)N[C@H]2COc3ccc(Cl)cc32)ccc1-n1cnc(C)c1`, in [3], the half-life is 2.43 h. For the same compound, the figures for the IC50 (in data set [1]; at Gamma-secretase) were 0.521 µM and greater than 50 µM, respectively. Moreover, in the data set on MDR1 (P-gp), human, the efflux ratio came out at 1.6. For the same compound, in data set [2], the microsomal CLint was 22.3 µL/min/mg. Besides, the fraction unbound at 4 h stood at 0.088 in data set [4] and 0.018 in data set [11]. Also, the outcome in the data set with Cavia porcellus [14] and with Cavia porcellus [15] was inactive. The results for the Activity with Cavia porcellus [5], in the data set with Cavia porcellus [9] and in the data set on Cavia porcellus [16] were 57%, 32% and 72%, respectively. This compound came in with a bioavailability in data set [6] of 100%. Besides, the values for the concentration at 4 h in data set [7] and in [12] were 22100 ng/g and 5120 ng/mL, respectively. Further, the clearance in data set [8] is 9.63 mL/min/kg. Besides, the Vd in [10] worked out at 1.87 L. In addition, the Ratio in data set [13] was determined as 2.1.

With `COc1ccc2c(c1)[C@@H](NC(=O)c1ccc(-n3cnc(C)c3)c(OC)c1)CO2`, in data set [1], the IC50 is 2.99 µM. Moreover, in data set [2], the microsomal CLint was found to be 16.9 µL/min/mg.

On to `COc1cc(C(=O)N2CC[C@H](Oc3ccccc3C(F)(F)F)C2)ncc1-n1cnc(C)c1`, for which the IC50 in data set [1] was determined as 5.33 µM.

Take `COc1cc(C(=O)NCc2cnc(-c3ccccc3)s2)ccc1-n1cnc(C)c1`: the Ratio with Brain worked out at 5. For the same compound, the IC50 in data set [1] is 0.332 µM. Further, the efflux ratio in the data set on MDR1 (P-gp), human was determined as 3.2. Also, the microsomal CLint in [2] amounted to 29.3 µL/min/mg.

With `COc1cc(C(=O)NCC2(c3ccc(F)cc3)CCC2)ccc1-n1cnc(C)c1`, in data set [1], the concentration for half-maximal inhibition (IC50) was 0.309 µM. The efflux ratio in the data set on MDR1 (P-gp), human is 1.6. Moreover, the microsomal CLint in data set [2] was determined as 112 µL/min/mg.

For the compound `COc1nc(C(=O)NC2COc3ccc(Cl)c(C)c32)ccc1-n1cnc(C)c1` (racemic), in [1], the IC50 came to 0.234 µM. In addition, in the data set with MDR1 (P-gp), human, the efflux ratio worked out at 1.8. For the same compound, the microsomal CLint in data set [2] amounted to 49.3 µL/min/mg.

For `COc1nc(C(=O)N2CC[C@H](Oc3ccccc3C(F)(F)F)C2)ccc1-n1cnc(C)c1`, the IC50 in [1] amounted to 0.208 µM. Moreover, the efflux ratio in the data set on MDR1 (P-gp), human amounted to 1.1. Further, the microsomal CLint in [2] is 48.7 µL/min/mg.

`COc1cc(C(=O)N2CC[C@H](Oc3ccccc3C(F)(F)F)C2)ccc1-n1cnc(C)c1`: the IC50 in data set [1] stood at 0.32 µM. The efflux ratio in the data set with MDR1 (P-gp), human came to 2.5. In addition, the microsomal CLint in [2] turned out to be 50.8 µL/min/mg.

Regarding `COc1cc(C(=O)NCc2nnc(-c3cccc(Cl)c3)o2)ccc1-n1cnc(C)c1`, the IC50 in [1] was found to be 1.46 µM. Moreover, in the data set with MDR1 (P-gp), human, the efflux ratio came out at 8.7.

For `COc1cc(C(=O)NCc2cc(-c3cccc(Cl)c3)no2)ccc1-n1cnc(C)c1`, the concentration for half-maximal inhibition (IC50) in data set [1] amounted to 0.33 µM. Also, the efflux ratio in the data set with MDR1 (P-gp), human is 3.8. In addition, the microsomal CLint in data set [2] amounted to 30 µL/min/mg.
